Results published in patent US12703850B2, “Photostabilized compositions and a method for stabilizing photosensitive components” (Evonik Operations GmbH, priority 2022, dated 2026).
Where a SMILES comes first, the peptide text is derived from it.

Columns and labels:
Type in all cases: physicochemical
[1] = Brown color index of solutions without riboflavin exposed to day light, Example 2; conditions: for Color after exposure (in words): amino acid up to 32 mM, 7 days electromagnetic radiation; for Color after exposure (in words) / Brown color index in cell culture media (MEM) Day 7 / Brown color index in PBS Day 7: room temperature; for Brown color index in cell culture media (MEM) Day 7 / Brown color index in cell culture media (MEM) Day 0 / Brown color index in PBS Day 7 / Brown color index in PBS Day 0: without 0.013 mM riboflavin; for Brown color index in cell culture media (MEM) Day 7 / Brown color index in PBS Day 7: 7 days day light
Method: […] These solutions were used to dissolve the dipeptides L-alanyl-L-tyrosine dihydrate (Ala-Tyr) and glycyl-L-tyrosine dihydrate (Gly-Tyr) as well as the amino acids L-tyrosine (Tyr), L-alanine (Ala), and glycine (Gly) at several concentrations to create solvent mixtures. In example 1, the dipeptides were tested at concentrations of 0.5 mM, 2.5 mM and 10 mM and Tyr at a concentration of 0.5 mM. PBS and MEM as well as 2.5 mM Trp dissolved in PBS and MEM were used as controls. In example 2, the dipeptides and Tyr were tested at a concentration of 2 mM, Ala and Gly at 32 mM, and the solvent (PBS or MEM) was used as control (“solvent background”).
(§1) The samples were exposed to electromagnetic radiation (day light) at room temperature for seven (example 2) as well as 14 days (example 1). A relative quantification of the brown color of the samples of example 1 was obtained by measuring the absorbance at 330 nm. The intensity of the brown color of samples of example 2 was determined by eye using a brown color index.
Other control solutions of PBS and MEM without riboflavin were colorless at day 0.

[2] = Brown color index of solutions with 0.013 mM riboflavin exposed to day light, Example 2; conditions: for Color after exposure (in words): amino acid up to 32 mM, 7 days; for Brown color index in cell culture media (MEM) Day 7 / Brown color index in cell culture media (MEM) Day 0 / Brown color index in PBS Day 7 / Brown color index in PBS Day 0: with 0.013 mM riboflavin; for Brown color index in cell culture media (MEM) Day 7 / Brown color index in PBS Day 7: 7 days day light; for Brown colorization after exposure (in words): 2 mM, any type of aqueous solution used
Method: Aqueous solutions of 2.5 mM L-Tryptophan (Trp) and 0.013 mM riboflavin were prepared in phosphate-buffered saline (D-PBS) as well as in Minimal Essential Medium (MEM). These solutions were used to dissolve the dipeptides L-alanyl-L-tyrosine dihydrate (Ala-Tyr) and glycyl-L-tyrosine dihydrate (Gly-Tyr) as well as the amino acids L-tyrosine (Tyr), L-alanine (Ala), and glycine (Gly) at several concentrations to create solvent mixtures. In example 1, the dipeptides were tested at concentrations of 0.5 mM, 2.5 mM and 10 mM and Tyr at a concentration of 0.5 mM. PBS and MEM as well as 2.5 mM Trp dissolved in PBS and MEM were used as controls. In example 2, the dipeptides and Tyr were tested at a concentration of 2 mM, Ala and Gly at 32 mM, and the solvent (PBS or MEM) was used as control (“solvent background”).
as §1
Aqueous solutions of PBS or MEM containing 0.013 mM riboflavin show a week fluorescent yellow-green color. Exposure to electromagnetic radiation at room temperature for seven days results in a brown colorization of the MEM solution, while the yellow-green color in PBS solutions vanished.

[3] = Brown colorization of tryptophan solutions exposed to day light (absorbance at 330 nm), Example 1; conditions: room temperature; for Effect on brown colorization compared with Tyr: 0.5 mM Tyr-dipeptide versus 0.5 mM Tyr; for Effect on brown colorization compared with Tyr / Effect on brown colorization of Trp solution: day light; for Effect on brown colorization of Trp solution: 14 days
Method: Aqueous solutions of 2.5 mM L-Tryptophan (Trp) and 0.013 mM riboflavin were prepared in phosphate-buffered saline (D-PBS) as well as in Minimal Essential Medium (MEM). These solutions were used to dissolve the dipeptides L-alanyl-L-tyrosine dihydrate (Ala-Tyr) and glycyl-L-tyrosine dihydrate (Gly-Tyr) as well as the amino acids L-tyrosine (Tyr), L-alanine (Ala), and glycine (Gly) at several concentrations to create solvent mixtures. […] PBS and MEM as well as 2.5 mM Trp dissolved in PBS and MEM were used as controls.
The intensity of the brown color was measured as absorbance difference at 330 nm.

[4] = 7 days electromagnetic radiation, room temperature
[5] = addition of 0.5 mM to 2.5 mM Trp in PBS or MEM, absorbance at 330 nm
[6] = dipeptide concentrations of up to 10 mM, 2.5 mM Trp in PBS or MEM

Row | Structure (SMILES) | Brown color index in cell culture media (MEM) Day 7 ([1]; sample 32 mM) | Brown color index in cell culture media (MEM) Day 0 ([1]; sample 32 mM) | Brown color index in PBS Day 7 ([1]; sample 32 mM) | Brown color index in PBS Day 0 ([1]; sample 32 mM) | Brown colorization after exposure (in words) [2, 4] | Brown color index in cell culture media (MEM) Day 7 ([2]; sample 2 mM, room temperature) | Brown color index in cell culture media (MEM) Day 0 ([2]; sample 2 mM) | Brown color index in PBS Day 7 ([2]; sample 2 mM, room temperature) | Brown color index in PBS Day 0 ([2]; sample 2 mM) | Effect on brown colorization of Trp solution [3, 5] | further results
1 | C[C@H](N)C(=O)O [Ala, L-alanine] | 1 (week brown color) | 0 (no brown color) | 0 (no brown color) | 0 (no brown color) | – | – | – | – | – | – | Color after exposure (in words) ([1]; MEM without riboflavin): week brown; Color after exposure (in words) ([1]; PBS without riboflavin): stayed colorless; Color after exposure (in words) ([2]; MEM with 0.013 mM riboflavin): normal brown; Color after exposure (in words) ([2]; PBS with 0.013 mM riboflavin): stayed colorless; Brown color index in cell culture media (MEM) Day 7 ([2]; sample 32 mM, room temperature): 3; Brown color index in cell culture media (MEM) Day 0 ([2]; sample 32 mM): 0 (no brown color); Brown color index in PBS Day 7 ([2]; sample 32 mM, room temperature): 0 (no brown color); Brown color index in PBS Day 0 ([2]; sample 32 mM): 0 (no brown color)
2 | C[C@H](N)C(=O)N[C@@H](Cc1ccc(O)cc1)C(=O)O.O.O [Ala-Tyr, L-alanyl-L-tyrosine dihydrate] (H-Ala-Tyr-OH) | 1 (week brown color) | 0 (no brown color) | 0 (no brown color) | 0 (no brown color) | normal brown color | 3 | 0 (no brown color) | 3 | 0 (no brown color) | reduce this colorization | Effect on brown colorization compared with Tyr ([3]; 2.5 mM Trp in PBS or MEM): the effect is greater; Effect on brown colorization of Trp solution [3, 6]: further reduction or even completely prevented the change in color
3 | NCC(=O)O [Gly, glycine] | 1 (week brown color) | 0 (no brown color) | 0 (no brown color) | 0 (no brown color) | – | – | – | – | – | – | Color after exposure (in words) ([1]; MEM without riboflavin): week brown; Color after exposure (in words) ([1]; PBS without riboflavin): stayed colorless; Color after exposure (in words) ([2]; MEM with 0.013 mM riboflavin): normal brown; Color after exposure (in words) ([2]; PBS with 0.013 mM riboflavin): stayed colorless; Brown color index in cell culture media (MEM) Day 7 ([2]; sample 32 mM, room temperature): 3; Brown color index in cell culture media (MEM) Day 0 ([2]; sample 32 mM): 0 (no brown color); Brown color index in PBS Day 7 ([2]; sample 32 mM, room temperature): 0 (no brown color); Brown color index in PBS Day 0 ([2]; sample 32 mM): 0 (no brown color)
4 | NCC(=O)N[C@@H](Cc1ccc(O)cc1)C(=O)O.O.O [Gly-Tyr, glycyl-L-tyrosine dihydrate] (H-Gly-Tyr-OH) | 1 (week brown color) | 0 (no brown color) | 0 (no brown color) | 0 (no brown color) | normal brown color | 3 | 0 (no brown color) | 3 | 0 (no brown color) | reduce this colorization | Effect on brown colorization compared with Tyr ([3]; 2.5 mM Trp in PBS or MEM): the effect is greater; Effect on brown colorization of Trp solution [3, 6]: further reduction or even completely prevented the change in color
5 | N[C@@H](Cc1c[nH]c2ccccc12)C(=O)O [Trp, L-Tryptophan] | – | – | – | – | – | – | – | – | – | – | Color change on exposure to electromagnetic radiation ([3]; 2.5 mM Trp alone in PBS or MEM): strong color change towards brown color
6 | N[C@@H](Cc1ccc(O)cc1)C(=O)O [Tyr, L-tyrosine] | – | – | – | – | strong brown | 5 (strong brown color) | 0 (no brown color) | 5 (strong brown color) | 0 (no brown color) | reduce this colorization | Brown color index in cell culture media (MEM) Day 7 ([1]; sample 2 mM): 2 (moderate brown color); Brown color index in cell culture media (MEM) Day 0 ([1]; sample 2 mM): 0 (no brown color); Brown color index in PBS Day 7 ([1]; sample 2 mM): 0 (no brown color); Brown color index in PBS Day 0 ([1]; sample 2 mM): 0 (no brown color)
7 | Cc1cc2nc3c(=O)[nH]c(=O)nc-3n(C[C@H](O)[C@H](O)[C@H](O)CO)c2cc1C [riboflavin, (−)-Riboflavin] | – | – | – | – | – | – | – | – | – | – | Intensity of brown color (brown color index, in words) ([2]; 0.013 mM riboflavin alone in MEM, 7 days electromagnetic radiation, room temperature): normal brown color; Yellow-green color after exposure ([2]; 0.013 mM riboflavin alone in PBS, 7 days electromagnetic radiation, room temperature): vanished
